Legend:
Assay in all cases: Tumor panel screen cytotoxicity (Example 10A)
Assay type in all cases: cell-based
[1] = test system: B16-F10 (murine melanoma)
Source text: (§1) Cells were maintained at subconfluent densities in their respective culture media.

[2] = test system: CCD-27sk (normal human fibroblast); conditions: CCD-27sk Fibroblast
Source text: as §1

[3] = test system: MDA-MB-231 (human breast tumor); conditions: MDA-MB-231 Breast
Source text: as §1

[4] = test system: OVCAR-3 (human ovarian tumor); conditions: OVCAR-3 Ovary
Source text: as §1

[5] = test system: PC3 (human prostate tumor); conditions: PC-3 Prostate
Source text: as §1

CC(C)(C)c1[nH]cnc1/C=c1\[nH]c(=O)/c(=C/c2ccccc2)[nH]c1=O [KPU-2, tBu-dehydro-PLH]
IC50 ([1]; Mus musculus): 37.1 nM
% Cytotoxicity Mean ([1]; maximum cytotoxic effect): 71.8%
% Cytotoxicity Mean ([2]; maximum cytotoxic effect): 64.3%
IC50 ([2]; Homo sapiens): 9.2 nM
IC50 ([3]; Homo sapiens): 13.8 nM
% Cytotoxicity Mean ([3]; maximum cytotoxic effect): 56.7%
IC50 ([4]; Homo sapiens): > 20000 nM
% Cytotoxicity Mean ([4]; maximum cytotoxic effect): 45.8%
IC50 ([5]; Homo sapiens): 13.4 nM
% Cytotoxicity Mean ([5]; maximum cytotoxic effect): 60.3%

— US8129527B2, “Analogs of dehydrophenylahistins and their therapeutic use” (Nereus Pharmacuticals, Inc., priority 2006, dated 2012)
